The source of these data is PMC12383972, “Oral Pharmacokinetic Evaluation of a Microemulsion-Based Delivery System for Novel A190 Prodrugs” (Biomolecules, 2025).

≈ marks a conversion by molar mass, not a printed value. Some results are limits rather than exact numbers.

Series [1] is described as follows: Parallel artificial membrane permeability assay (PAMPA). In kind it is in vitro ADME. The note with it: PBS pH 6.8, 200 µg/mL donor, 5 h, room temperature. The protocol:
Parallel artificial membrane permeability assay (PAMPA) is a widely used screening method to predict the passive intestinal permeability using a phospholipid coated lipophilic membrane which simulates the properties of the intestinal wall. The in vitro intestinal membrane permeability of free A190-PD-60 (dispersed in PBS pH 6.8), A190-PD-60 dispersion (dispersed in a mixture of 1:1 v/v methylcellulose/Tween 80), and A190-PD-60-ME were evaluated using a PAMPA plate (BD BioSciences, San Jose, CA, USA), as described previously. The samples for donor chamber were prepared by diluting free A190-PD-60, A190-PD-60 dispersion, and A190-PD-60-ME with PBS pH 6.8 to a final concentration of 200 µg/mL. […] The concentration of A190-PD-60 which permeated into the acceptor chamber was measured using a HPLC-UV system. The effective permeability coefficient (Pe) was then calculated using the following equation:Pe = −ln(1 − CA[t]/Cequilibrium)/(A × [1/VD + 1/VA] × t)(1) where Pe is the permeability (cm/s), A is the effective filter area (0.228 cm^2), VD is the volume of the donor well (0.2 mL), VA is the volume of the receptor well (0.3 mL), t is the total time of incubation in seconds, CA(t) denotes the concentration of drug in the receptor well at time t, and Cequilibrium represents (CD[t] × VD + CA[t] × VA)/(VD + VA), where CD(t) denotes the concentration of drug in the donor well at time t.
Background: The PAMPA barrier holds no transporters, so it reflects passive diffusion.

Series [2] can be described thus: Chemical hydrolysis stability in PBS pH 7.4. In kind it is physicochemical. The note with it: PBS pH 7.4, 37 °C, 100 μM. As to the method: Chemical hydrolysis stability of each prodrug was assessed in a physiological pH 7.4 using phosphate buffered saline solution (PBS) as previously described. After preincubation of PBS solution at 37 °C for 5 min, stock solution of each prodrug (10 mM) was spiked to a final concentration of 100 μM. The samples were then incubated at 37 °C on a temperature-controlled orbital shaker operating at 200 rpm. At predetermined time points, 200 μL of incubation mixture was withdrawn and quenched with 100 μL of internal standard (0.5 μg/mL of fenofibric acid) and 700 μL ice cold ACN. Drug concentration was analyzed using HPLC-UV method as described earlier to assess the amount of prodrug recovered compared to the starting timepoint.

Series [3] in a line: Bioconversion of prodrugs in rat plasma. In kind it is in vitro ADME. The note with it: 100 μM prodrug, 37 °C. As to the method:
Conversion of the respective prodrugs to the parent drug A190 was assessed in pooled rat and rabbit plasma. Following pre-incubation of plasma at 37 °C for 5 min, stock solution of each prodrug (10 mM) was spiked into the plasma to reach a final concentration of 100 μM. The mixture was incubated at 37 °C, 200 rpm on a temperature-controlled orbital shaker. Incubation mixture (200 μL) was withdrawn at pre-determined time points, and the reaction was terminated by the addition of 700 μL of ice cold ACN. 100 μL of internal standard (0.5 μg/mL of fenofibric acid) was then spiked, and the samples were vortexed and centrifuged at 10,000× g for 10 min. The resulting supernatants were collected and filtered using PTFE filters and injected into HPLC-UV system. The LC system was a reverse phased Shimadzu Prominence (Kyoto, Japan) using a Pursuit 5 C18 column. Isocratic separation was performed with mobile phase consisting of ACN/water (80/20 v/v) containing 0.1% trifluoroacetic acid and monitored at a UV detection of 227 nm.

The subject of a further series is HepG2 cells. As to the kind of experiment: MTT cell viability assay, HepG2. Type of series: cell-based, human. The note with it: HepG2, 50 µM, 24 h and 48 h. As to the method: To evaluate the cytotoxicity of free A190-PD-60 (in 0.2% DMSO in DMEM), vehicle microemulsion, and A190-PD-60-ME against Caco-2 cells and HepG2 cells, an MTT assay using 3-(4,5-dimethylthiazol-2-yl)-2,5-diphenyltetrazolium bromide was performed as described before. Caco-2 and HepG2 cells were first cultured in DMEM supplemented with 10% FBS, penicillin (100 U/mL), and streptomycin (100 μg/mL) at 37 °C in a 5% CO2 humidified incubator. Upon reaching confluence, cells were trypsinized and seeded at 10 × 10^4 cells/well in 96-well plates. After 48 h, the medium was replaced with fresh dilutions of free A190-PD-60, vehicle microemulsion, or A190-PD-60-ME (0.1–50 µM) in DMEM. Controls included untreated cells and cells treated with 0.2% DMSO in DMEM. Following 24 h and 48 h incubation, the medium was replaced with 100 µL of MTT solution (5 mg/mL in PBS) and incubated for 3 h. The supernatant was then removed, and formazan crystals were dissolved in 100 µL DMSO. Absorbance was measured at 540 nm, and cell viability (%) was calculated as (OD of samples/OD of control) × 100.
Background: Tetrazolium dyes change colour on reduction, which living cells bring about.

Another series in a line: Aqueous solubility. In kind it is physicochemical. The note with it: thermodynamic from solid; deionized water, 25 °C, 48 h equilibrium. As to the method:
Aqueous solubility of each prodrug was assessed using deionized water. In brief, an excess amount of each prodrug was placed in a stoppered vial containing 1 mL of water. Each sample was vortexed and kept in an isothermal shaker maintained at 25 ± 1.0 °C to reach equilibrium for 48 h. The resulting mixture was centrifuged at 4000× g for 15 min, and the supernatant was collected and diluted with ACN followed by filtration with a 0.22 μm filter. The drug concentrations for all prodrugs were measured using HPLC-UV. Chromatographic separation was achieved using an Agilent Pursuit XRs 5 C18 column (250 × 4.6 mm) with a UV-detector system. The mobile phase consisted of ACN and water, both containing 0.1% trifluoroacetic acid in a ratio of 80:20 v/v, with a flow rate of 1 mL/min at 25 °C.

Take `Cc1cc(CNc2cccc(C(=O)OCc3oc(=O)oc3C)c2)ccc1OCc1ccc(F)cc1` [A190-PD-60, (5-Methyl-2-oxo-1,3-dioxol-4-yl)methyl3-((4-((4-Fluorobenzyl)oxy)-3-methylbenzyl)amino)benzoate]: the “Effective Permeability Across Artificial Membrane (Pe)” value is on record as < 0.1 ×10^−6, cm/s in series [1] and “BLD” in series [1] (listed as A190-PD-60 in PBS). The “drug remaining at 2 h” value in series [2] is recorded as “over 80%”. In addition, in series [3] (pooled rat plasma), the half-life (as a rule, how long it takes for the measured level to halve) at 100 μM is 18 min. In addition, the “Prodrug bioconversion half-life (Rat plasma)” value in series [3] (Figure 3E) turned out to be 18 min. For the same compound, the “cytotoxicity at highest tested concentration” value in the series on HepG2 cells was “no significant cytotoxicity”. In the series “Aqueous solubility”, the concentration in solution (solubility at 48 h) came to 1.4 ± 0.23 µg/mL (≈ 2.93 µM).
